Assays:
[1] = biological target: T1, C-terminal His6-tagged human JAK2 kinase (Homo sapiens, UniProt O60674); experiment: JAK2 Amplified Luminescent Proximity Homogeneous Assay (ALPHA) (Method 3); assay type: biochemical; conditions: biotinylated Tyk substrate, 20 minutes preincubation, 90 minutes at 25° C.
T1 construct: His6 (C); purchased Upstate Biotechnology, MA 14-640; host or cells: baculovirus in Sf21 cells
Protocol: Activity of purified C-terminal His6-tagged human JAK2 kinase was determined in-vitro using an Amplified Luminescent Proximity Homogeneous Assay (ALPHA) (Perkin Elmer, MA), which measures phosphorylation of a biotinylated Tyk ([…]) substrate (Cell Signaling Technology, MA, Cat #2200B). Commercially available JAK2 (amino acids 808-end, Genbank Accession number NM 004972, Upstate Biotechnology, MA, Catalog 14-640) was expressed by baculovirus in Sf21 cells and affinity purified by Ni^+2/NTA agarose.
The phosphorylation of Tyk substrate in the presence and absence of the compound of interest was determined. Briefly, 5 μl of Enzyme/Substrate/adenosine triphosphate (ATP) mix consisting of 1.44 nM JAK2, 192 nM Tyk, and 12 mM ATP in 1.2× buffer was preincubated with 2 μl of compound for 20 minutes at 25° C. […] Phosphorylated substrate was detected by an EnVision plate reader (Perkin Elmer, MA) 680 nm excitation, 520-620 nm emission. Data was graphed and IC50s calculated using Excel Fit (Microsoft).

[2] = biological target: T2, N-terminal GST-tagged, recombinant, human JAK2 (amino acids 831-1132) (Homo sapiens, UniProt O60674); experiment: JAK2 mobility shift assay on Caliper LC3000 (Method 2); assay type: biochemical; conditions: 0.3 nM JAK2 enzyme, 5 mM ATP, 1.5 μM SRCtide, 90 minutes room temperature
T2 construct: human JAK2 (amino acids 831-1132, PLAZA database pAZB0359); GST (N); host or cells: insect cells
Protocol: Janus kinase 2 (JAK2) activity was also determined by measuring the kinase's ability to phosphorylate a tyrosine residue within a peptide substrate using a mobility shift assay on a Caliper LC3000 reader (Caliper, Hopkinton, Mass.), which measures fluorescence of the phosphorylated and unphosphorylated substrate and calculates a ratiometric value to determine percent turnover.
To measure JAK2 kinase activity, an in-house purified enzyme was used. […] After incubation of the kinase with a FAM labeled SRCtide substrate, adenosine triphosphate (ATP), and MgCl2 for 90 minutes at room temperature, the kinase reaction was stopped by the addition of 36 mM ethylenediaminetetraacetic acid (EDTA). The reaction was performed in 384 well microtitre plates and the reaction products were detected using the Caliper LC3000 Reader.

T2 sequence (O60674 831-1132): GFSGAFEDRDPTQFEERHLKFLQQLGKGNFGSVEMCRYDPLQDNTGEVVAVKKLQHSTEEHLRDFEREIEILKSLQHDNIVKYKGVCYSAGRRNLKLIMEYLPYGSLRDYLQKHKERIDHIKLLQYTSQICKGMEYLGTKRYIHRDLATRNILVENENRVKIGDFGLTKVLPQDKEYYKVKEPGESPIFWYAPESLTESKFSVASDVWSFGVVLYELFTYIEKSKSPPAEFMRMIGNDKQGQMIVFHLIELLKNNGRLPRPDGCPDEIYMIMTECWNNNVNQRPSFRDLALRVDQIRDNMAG
T1 sequence (O60674 808-1132 limits assumed): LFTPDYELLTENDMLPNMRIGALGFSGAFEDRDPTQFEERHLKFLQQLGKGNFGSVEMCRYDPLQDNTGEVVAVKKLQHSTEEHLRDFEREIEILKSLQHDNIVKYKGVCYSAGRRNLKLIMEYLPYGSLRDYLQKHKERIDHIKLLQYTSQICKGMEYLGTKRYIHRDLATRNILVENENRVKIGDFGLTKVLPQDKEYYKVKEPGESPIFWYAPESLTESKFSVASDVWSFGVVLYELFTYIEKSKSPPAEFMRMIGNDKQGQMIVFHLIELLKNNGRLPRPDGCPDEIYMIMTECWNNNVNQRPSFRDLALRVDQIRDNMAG

For `CCn1ncc2c(Nc3cn(C)cn3)nc(NC(C)c3ncc(F)cn3)nc21` (single isomer, unassigned) [Example 9(a), 1-Ethyl-N^6-[1-(5-fluoropyrimidin-2-yl)ethyl]-N^4-(1-methyl-1H-imidazol-4-yl)-1H-pyrazolo[3,4-d]pyrimidine-4,6-diamine], which IC50 [1] is on record?
Its IC50 is 13700 nM.

`CC(Nc1nc(Nc2cn(C)cn2)c2cc[nH]c2n1)c1ncc(F)cc1F` (single isomer, unassigned) [Example 25(a), N^2-[1-(3,5-Difluoropyridin-2-yl)ethyl]-N^4-(1-methyl-1H-imidazol-4-yl)-7H-pyrrolo[2,3-d]pyrimidine-2,4-diamine] was tested. Which IC50 [1] did it give?
The IC50 was 2900 nM.

Which IC50 [2] does the source give for `COc1cnc(C(C)Nc2nc(Nc3cn(C)cn3)c3cc[nH]c3n2)nc1` (centres unmarked) [Example 27(b), N^2-[1-(5-Methoxypyrimidin-2-yl)ethyl]-N^4-(1-methyl-1H-imidazol-4-yl)-7H-pyrrole[2,3-d]pyrimidine-2,4-diamine] here?
The IC50 was 520 nM.

For `C[C@H](Nc1nc(Nc2cn(C)cn2)c2ccc(C(F)(F)F)nc2n1)c1ncc(F)cn1` [Example 32, N^2-[(1S)-1-(5-Fluoropyrimidin-2-yl)ethyl]-N^4-(1-methyl-1H-imidazol-4-yl)-7-(trifluoromethyl)pyrido[2,3-d]pyrimidine-2,4-diamine], which IC50 [2] is on record?
The IC50 was 35 nM.

How did the IC50 [2] turn out when `C[C@H](Nc1nc(Nc2cn(C)cn2)c2ccc(O)nc2n1)c1ncc(F)cn1` [Example 34, 2-{[(1S)-1-(5-Fluoropyrimidin-2-yl)ethyl]amino}-4-[(1-methyl-1H-imidazol-4-yl)amino]pyrido[2,3-d]pyrimidin-7-ol] was run?
Its IC50 is 47 nM.

— US20110201628A1, “HETEROCYCLIC JAK KINASE INHIBITORS” (priority 2008, published 2011)
